Experimental data reported in ChEMBL document CHEMBL4619812, “Discovery of Potent and Orally Available Bicyclo[1.1.1]pentane-Derived Indoleamine-2,3-dioxygenase 1 (IDO1) Inhibitors” (ACS Med Chem Lett, 2020).
pEC50, pIC50: −log10 of the molar value.

How the values were obtained:
[1] = Unbound intrinsic clearance in human hepatocytes; format: ADME, cell-based, Hepatocyte
[2] = Unbound intrinsic clearance in rat hepatocytes; format: ADME, cell-based, Hepatocyte
CYP450 = CYP450 (Homo sapiens, UniProt P04798+P05177+P05181+P08684+P10632+P10635+P11509+P11712+P13584+P20813+P20815+P20853+P24462+P24903+P33260+P33261+P51589+P78329+P98187+Q02928+Q08477+Q16678+Q16696+Q5TCH4+Q6VVX0+Q7Z449+Q8TAV3+Q96SQ9+Q9HB55); assay: Inhibition of CYP450 (unknown origin); format: ADME, protein assay
[3] = Elimination half life in rat; format: ADME; settings: in vivo, read-out: beta t1/2 (converted)
[4] = Oral bioavailability in dog; format: ADME, organism-based, Canis lupus familiaris; settings: in vivo
[5] = molecular target: MDR1 (ABCB1, P-glycoprotein) (Homo sapiens, UniProt P08183); assay: Substrate activity at human MDR1 expressed in pig LLC-PK1 cells assessed as efflux ratio of permeability across basolateral to apical over apical to basolateral membrane at 1 mM after 3 hrs by LC/MS/MS analysis; set-up: dose or concentration left out as unconfirmed
Sequence of MDR1 (ABCB1, P-glycoprotein) (P08183 whole entry): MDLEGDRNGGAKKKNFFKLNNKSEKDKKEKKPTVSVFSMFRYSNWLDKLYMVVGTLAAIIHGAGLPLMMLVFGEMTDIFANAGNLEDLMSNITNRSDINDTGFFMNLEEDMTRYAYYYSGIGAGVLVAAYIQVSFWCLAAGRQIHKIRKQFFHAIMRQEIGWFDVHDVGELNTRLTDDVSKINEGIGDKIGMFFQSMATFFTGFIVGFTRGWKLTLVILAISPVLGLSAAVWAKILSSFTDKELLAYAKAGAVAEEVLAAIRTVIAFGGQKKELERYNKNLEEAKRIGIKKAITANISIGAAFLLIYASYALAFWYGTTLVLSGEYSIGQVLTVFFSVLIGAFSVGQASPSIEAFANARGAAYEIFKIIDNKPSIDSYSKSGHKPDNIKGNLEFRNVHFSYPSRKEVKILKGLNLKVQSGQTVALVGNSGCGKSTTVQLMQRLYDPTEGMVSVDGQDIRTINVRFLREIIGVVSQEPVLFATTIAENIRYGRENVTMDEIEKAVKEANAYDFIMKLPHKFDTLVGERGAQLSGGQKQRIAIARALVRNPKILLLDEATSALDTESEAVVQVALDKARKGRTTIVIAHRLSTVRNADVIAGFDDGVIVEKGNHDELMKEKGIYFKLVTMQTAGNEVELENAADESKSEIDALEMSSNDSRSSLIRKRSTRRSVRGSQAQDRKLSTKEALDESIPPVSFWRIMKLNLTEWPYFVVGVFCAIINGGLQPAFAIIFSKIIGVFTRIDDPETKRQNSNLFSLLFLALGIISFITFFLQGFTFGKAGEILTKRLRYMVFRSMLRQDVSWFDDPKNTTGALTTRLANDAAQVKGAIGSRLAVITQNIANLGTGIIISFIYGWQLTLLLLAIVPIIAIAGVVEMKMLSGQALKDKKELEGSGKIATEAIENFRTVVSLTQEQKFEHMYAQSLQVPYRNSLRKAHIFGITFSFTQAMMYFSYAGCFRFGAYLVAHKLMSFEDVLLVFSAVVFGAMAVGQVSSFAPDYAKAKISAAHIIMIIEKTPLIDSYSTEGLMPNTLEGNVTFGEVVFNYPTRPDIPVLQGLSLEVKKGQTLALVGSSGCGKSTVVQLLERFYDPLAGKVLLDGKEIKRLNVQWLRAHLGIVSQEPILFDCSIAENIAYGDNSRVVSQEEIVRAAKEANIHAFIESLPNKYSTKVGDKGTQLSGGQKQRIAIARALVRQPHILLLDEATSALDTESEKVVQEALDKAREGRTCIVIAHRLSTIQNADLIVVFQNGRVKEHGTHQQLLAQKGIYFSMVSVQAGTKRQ

[6] = molecular target: Tryptophan 2,3-dioxygenase (Homo sapiens, UniProt P48775); assay: Inhibition of TDO in human SW48 cells using L-tryptophan as substrate incubated for 48 hrs by fluorescent microplate reader assay; format: cell-based
Sequence of Tryptophan 2,3-dioxygenase (P48775 whole entry): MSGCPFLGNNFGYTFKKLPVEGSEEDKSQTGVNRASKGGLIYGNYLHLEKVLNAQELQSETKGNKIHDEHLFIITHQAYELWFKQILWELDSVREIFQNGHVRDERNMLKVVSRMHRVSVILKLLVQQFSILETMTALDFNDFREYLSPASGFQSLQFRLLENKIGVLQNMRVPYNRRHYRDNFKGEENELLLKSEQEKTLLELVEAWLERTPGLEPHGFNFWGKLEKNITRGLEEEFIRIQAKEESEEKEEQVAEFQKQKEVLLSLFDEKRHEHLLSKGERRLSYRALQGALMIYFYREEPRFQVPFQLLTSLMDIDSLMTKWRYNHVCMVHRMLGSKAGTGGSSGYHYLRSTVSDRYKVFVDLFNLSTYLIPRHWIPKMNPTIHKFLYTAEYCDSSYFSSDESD

[7] = Unbound clearance in rat; format: ADME; settings: in vivo
[8] = molecular target: Indoleamine 2,3-dioxygenase 1 (Homo sapiens) (UniProt P14902); settings: Blood
Sequence of Indoleamine 2,3-dioxygenase 1 (Homo sapiens) (P14902 whole entry, looked up): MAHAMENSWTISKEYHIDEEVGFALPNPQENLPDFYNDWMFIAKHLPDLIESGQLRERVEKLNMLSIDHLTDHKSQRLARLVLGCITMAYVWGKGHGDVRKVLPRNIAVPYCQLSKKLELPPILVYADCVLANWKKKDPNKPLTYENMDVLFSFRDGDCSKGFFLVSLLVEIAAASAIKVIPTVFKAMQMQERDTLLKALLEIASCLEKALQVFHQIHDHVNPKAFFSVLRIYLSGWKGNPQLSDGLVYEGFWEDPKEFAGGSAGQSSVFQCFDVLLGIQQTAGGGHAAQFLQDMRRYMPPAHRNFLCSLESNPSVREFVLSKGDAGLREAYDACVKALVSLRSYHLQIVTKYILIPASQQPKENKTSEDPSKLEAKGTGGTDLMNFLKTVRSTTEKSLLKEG
Description: Inhibition of IDO1 in human whole blood stimulated with IFNgamma/LPS using L-tryptophan/kynurenine as substrate incubated for 15 mins prior to IFNgamma/LPS stimulation and further incubated for 18 hrs followed by isotope labeled L-tryptophan/kynurenine addition on day 2 by LC/MS-MS analysis

[9] = Unbound intrinsic clearance in dog hepatocytes; format: ADME, cell-based, Canis lupus familiaris, Hepatocyte
CYP3A4 = CYP3A4 (Homo sapiens, UniProt P08684); assay: Inhibition of CYP3A4 (unknown origin) assessed as TDI shift ratio
Sequence of CYP3A4 (P08684 whole entry): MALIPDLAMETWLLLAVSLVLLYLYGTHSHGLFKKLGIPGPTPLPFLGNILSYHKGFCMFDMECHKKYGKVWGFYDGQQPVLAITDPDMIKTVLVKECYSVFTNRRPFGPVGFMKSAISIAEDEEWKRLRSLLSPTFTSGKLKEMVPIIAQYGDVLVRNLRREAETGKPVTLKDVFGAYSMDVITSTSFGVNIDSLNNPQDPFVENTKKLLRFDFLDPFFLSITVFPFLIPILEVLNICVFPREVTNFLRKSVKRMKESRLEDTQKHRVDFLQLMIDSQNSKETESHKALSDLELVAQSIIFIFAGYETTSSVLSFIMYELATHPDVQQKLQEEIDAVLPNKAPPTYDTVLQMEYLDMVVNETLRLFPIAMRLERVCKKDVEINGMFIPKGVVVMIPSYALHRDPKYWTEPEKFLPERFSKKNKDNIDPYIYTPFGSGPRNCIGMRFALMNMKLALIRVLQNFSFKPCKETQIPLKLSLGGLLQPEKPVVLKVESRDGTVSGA

[10] = Apparent permeability in MDCK2 cells; format: ADME, cell-based, Canis lupus familiaris, MDCK-II; settings: dog, MDCK
[11] = Clearance in rat; format: ADME; settings: in vivo
[12] = Unbound clearance in dog; format: ADME, Canis lupus familiaris; settings: in vivo
[13] = Oral bioavailability in rat; format: ADME, organism-based; settings: in vivo
[14] = Elimination half life in dog; format: ADME, Canis lupus familiaris; settings: in vivo, read-out: beta t1/2 (converted)
[15] = molecular target: T1, Nuclear receptor subfamily 1 group I member 2 (Homo sapiens, UniProt O75469); assay: Activation of PXR (unknown origin)
T1 sequence (O75469 whole entry): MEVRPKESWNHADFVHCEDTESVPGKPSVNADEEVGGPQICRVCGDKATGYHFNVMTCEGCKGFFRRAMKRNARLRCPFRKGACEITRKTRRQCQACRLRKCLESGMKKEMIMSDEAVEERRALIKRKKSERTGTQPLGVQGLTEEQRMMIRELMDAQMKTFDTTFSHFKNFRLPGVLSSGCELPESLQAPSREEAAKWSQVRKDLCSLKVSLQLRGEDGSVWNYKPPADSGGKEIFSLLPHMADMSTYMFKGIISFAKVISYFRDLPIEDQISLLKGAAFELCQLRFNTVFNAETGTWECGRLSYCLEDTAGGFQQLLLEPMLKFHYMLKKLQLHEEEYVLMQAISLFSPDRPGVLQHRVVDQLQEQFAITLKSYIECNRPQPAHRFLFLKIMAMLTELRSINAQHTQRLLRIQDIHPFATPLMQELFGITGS

[16] = Clearance in dog; format: ADME, Canis lupus familiaris; settings: in vivo

| SMILES | CL free [1] | CL free [2] | other results |
| --- | --- | --- | --- |
| C[C@H](C(=O)Nc1ccc(F)cc1)C12CC(Nc3ncnc4ccc(F)cc34)(C1)C2 | 723 mL/min/kg | 549 mL/min/kg |  |
| C[C@H](C(=O)Nc1ccc(F)cc1)C12CC(Nc3ncnc4ccccc34)(C1)C2 | 1544 mL/min/kg | 1494 mL/min/kg |  |
| CC(C)OC(=O)NC12CC([C@H](C)C(=O)Nc3ccc(F)cc3)(C1)C2 | 369 mL/min/kg | 2925 mL/min/kg |  |
| O=C(Nc1ccc(C2(C(=O)Nc3ccc(F)cc3)CCC2)cc1)c1cccc(Cl)c1 |  | 1935 mL/min/kg | CL free [7]: 4371 mL/min/kg |
| C[C@H](C(=O)Nc1ccc(F)cc1)C12CC(NC(=O)OC3CCCC3)(C1)C2 | 2357 mL/min/kg | 4457 mL/min/kg |  |
| CC(C)(C(=O)Nc1ccc(F)cc1)C12CC(NC(=O)c3cccc(Cl)c3)(C1)C2 | 51 mL/min/kg | 197 mL/min/kg |  |

Further lines, with some results ahead:

| CL free [1] | CL free [2] | SMILES | other results |
| --- | --- | --- | --- |
| 47 mL/min/kg | 150 mL/min/kg | C[C@H](C(=O)Nc1ccc(Cl)cc1)C12CC(NC(=O)c3cccc(Cl)c3)(C1)C2 |  |
| 34 mL/min/kg | 133 mL/min/kg | C[C@H](C(=O)Nc1ccc(Cl)nc1)C12CC(NC(=O)c3cccc(Cl)c3)(C1)C2 |  |
| 82 mL/min/kg | 644 mL/min/kg | C[C@H](C(=O)Nc1ccc(F)cc1)C12CC(NC(=O)c3cccc(Cl)n3)(C1)C2 |  |
| 56 mL/min/kg | 295 mL/min/kg | C[C@H](C(=O)Nc1ccc(F)cc1)C12CC(NC(=O)c3ccc(F)c(Cl)c3)(C1)C2 |  |
| 52 mL/min/kg | 195 mL/min/kg | C[C@H](C(=O)Nc1ccc(F)cc1)C12CC(NC(=O)c3ccc(F)c(F)c3)(C1)C2 | pIC50 (CYP450): < 4.30; half-life [3]: 660 min; bioavailability [4]: 79%; efflux ratio at 3 h [5]: 1.3; pIC50 [6]: < 5.00; CL free [7]: 37 mL/min/kg; IC90 [8]: 912 nM; CL free [9]: 121 mL/min/kg; IC50 shift (CYP3A4): 1; Papp [10]: 29 ×10⁻⁶ cm/s; clearance [11]: 2 mL/min/kg; CL free [12]: 22 mL/min/kg; bioavailability [13]: 83%; half-life [14]: 2160 min; pEC50 [15]: < 4.52; clearance [16]: 1.1 mL/min/kg |
| 56 mL/min/kg | 441 mL/min/kg | C[C@H](C(=O)Nc1ccc(F)cc1)C12CC(NC(=O)c3cc(F)cc(Cl)c3)(C1)C2 |  |
| 591 mL/min/kg | 765 mL/min/kg | C[C@H](C(=O)Nc1ccc(F)cc1)C12CC(NC(=O)c3cccc(Cl)c3F)(C1)C2 |  |
| 48 mL/min/kg | 247 to 248 mL/min/kg | C[C@H](C(=O)Nc1ccc(F)cc1)C12CC(NC(=O)c3cccc(Cl)c3)(C1)C2 | half-life [3]: 222 min; pIC50 [6]: < 5.00; CL free [7]: 194 mL/min/kg; Papp [10]: 32 ×10⁻⁶ cm/s; clearance [11]: 5 mL/min/kg; bioavailability [13]: 110% |
